The text below walks through data of patent US20140364449A1 (priority 2012, published 2014).

Like-named read-outs stand apart in the source and are kept apart here.

Experiment [1] concerns the target T1, mu-opioid receptor (Rattus norvegicus, UniProt P33535).
T1 construct: expressed in transfected cells; host or cells: HEK293 cells, transient transfection
The format is binding.

For experiment [2], the target named is T1, mu-opioid receptor. The format is cell-based.

T1 sequence (P33535 whole entry): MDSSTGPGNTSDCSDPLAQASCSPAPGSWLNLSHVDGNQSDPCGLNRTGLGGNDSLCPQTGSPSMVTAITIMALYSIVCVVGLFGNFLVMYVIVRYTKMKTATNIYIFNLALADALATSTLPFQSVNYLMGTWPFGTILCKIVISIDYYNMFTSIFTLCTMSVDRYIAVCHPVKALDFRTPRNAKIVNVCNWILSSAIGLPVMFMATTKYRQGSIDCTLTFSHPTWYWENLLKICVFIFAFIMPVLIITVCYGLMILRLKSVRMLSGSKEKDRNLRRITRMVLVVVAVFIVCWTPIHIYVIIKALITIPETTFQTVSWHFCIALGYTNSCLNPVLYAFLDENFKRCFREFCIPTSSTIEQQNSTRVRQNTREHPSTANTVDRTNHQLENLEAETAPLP

As for `C[C@@H](NC(=O)[C@@H](N)Cc1ccc(O)cc1)C(=O)NCC(=O)N(C)[C@@H](Cc1ccccc1)C(=O)NCCO` [DAMGO, (D-Ala^2, N-MePhe^4, Gly^5-ol)-enkephalin], the “Affinity and number of binding sites, pH dependence” value at mu-opioid receptor [1] is “slightly (nonsignificantly) lower at pH 5.5 compared to pH 7.5”. For the same compound, the “^3H-DAMGO Bmax” value on mu-opioid receptor [1] (pH 5.5) stood at 14.04 fmol/mg; on mu-opioid receptor [1] (pH 6.5), 15.50 fmol/mg; on mu-opioid receptor [1] (pH 7.5), 23.95 fmol/mg. Also, the “cAMP (% baseline)” value on mu-opioid receptor [2] (pH 5) is given as 43 ± 6 % baseline; at mu-opioid receptor [2] (pH 6.5), 68 ± 9 % baseline; at mu-opioid receptor [2] (pH 7.5) it was 82 ± 7 % baseline. Moreover, the “Suppression of FSK/IBMX-stimulated cAMP, pH dependence” value at mu-opioid receptor [2] (pH 7.5) is reported as “markedly stronger at pH 5.0 than at pH 7.5”.
